Tested on: panel of 287 distinct human protein kinases, three lipid kinases, and 27 disease-relevant mutant variants
Assay: Weighted selectivity score from competition binding assays against a kinase panel
Conditions: Kd thresholds <100 nM, <1 μM, <3 μM weighted; panel of 317 assays; FIG. 7
Experimental: In one embodiment, a kinase subset may be determined by using a computational method that can extract knowledge from large amounts of data from known cancer drug designs and find a subset of kinases. A first step in determining a kinase subset involves the use of data from competition binding assays where kinase inhibitors are evaluated against a panel of protein kinases. For each interaction, a quantitative dissociation constant (Kd) is needed.
In one embodiment, a quantitative description, called a weighted selectivity score, is developed for assessing kinome-wide compound reactivities by suitably coarse-graining the binding-affinity vector. […] The weighted selectivity score (normalized or not) is an unbiased measure that enables quantitative comparisons between compounds and the detailed differentiation and analysis of interaction patterns. […]
To validate a method of the present disclosure, data from a previous competition binding assays was used wherein 38 kinase inhibitors were evaluated against a panel of 287 distinct human protein kinases, three lipid kinases, and 27 disease-relevant mutant variants. […] Each compound was screened against the panel of 317 assays at a single concentration of 10 μM to identify candidate kinase targets, and for each interaction observed in this primary screen a quantitative dissociation constant was determined.

Compound: COc1ccc(COc2ccc(Cc3cnc(N)nc3N)cc2OC)cc1 [GW-2580]
- weighted selectivity score (overall score): 3.5

Reference: patent US20120122730A1, “Methods for Quantitative Analyses of Kinase Inhibitor Selectivity Using Small Size Panels” (priority 2010, published 2012)
